From patent US11207331B2, “Agents, compositions and methods for enhancing neurological function” (University of Southern California, priority 2007, dated 2021)
“Also recorded” adds a separate entry of the source.

Tests used:
SVZ from 3×TgAD mice = experiment: Unbiased stereology of BrdU-positive cells in subventricular zone; assay type: in vivo, mouse; conditions: 10 mg/kg
[1] = test system: mouse dentate gyrus subgranular zone (SGZ); experiment: Unbiased stereology of BrdU-positive cells in dentate gyrus subgranular zone; assay type: in vivo; conditions: for cell proliferation (normal BrdU+ cells) / pyknotic BrdU+ cell count after THP treatment: 24 hr; for pyknotic BrdU+ cell count after THP treatment: 6-months, 10 mg/kg s.c.
Method: Mice of each genotype and age received a subcutaneous (s.c.) injection of THP at a concentration of 10 mg/kg body weight (BW), an optimal dose of THP-[…] based on our previous studies. One hour after THP injection, mice were intraperitoneally (i.p.) injected with 100 mg/kg BW bromodeoxyuridine (BrdU). Two experimental paradigms were used: 1) THP treatment for behavior and cell survival assessment, in which animals received a single shot of THP/vehicle, followed by a 7-day neurogenesis and migration phase, followed by a 5-day trace-conditioning test followed 9 days later by a 1-day memory test, and scarified 21 days after a single THP injection at which time FACS analysis of BrdU positive cells was performed to assess cell survival; 2).
Acute THP treatment for cell proliferation assessment, in which animals received a single injection of THP/vehicle and were sacrificed 24 hr later followed by quantitative unbiased stereology of BrdU positive cells.
Mice were sacrificed 24 h after THP administration for cell proliferation assessment or at the end of memory test for cell survival assessment. On the day of sacrifice mice were deeply anesthetized with a combination of ketamine (100 mg/kg) and xylazine (10 mg/kg), and perfused with PBS. Brains were dissected into two hemispheres, and one hemisphere was fixed immediately in cold 4% paraformaldehyde and was used for either stereological analysis (cell proliferation) or FACS analysis (cell survival).
The fixed hemispheres from cell proliferation assessment experiment were sectioned into a series of 40 μm coronal sections and every sixth section in the series was processed for BrdU histolabeling by NeuroScience Associates (Knoxville, Tenn.). Prior to labeling, all slides were coded and the codes were not broken until analyses were completed. The number of BrdU labeled cells was determined by unbiased stereology (optical dissector). Systematic samplings of unbiased counting frames of 50 μm on a side with a 200 μm matrix spacing were produced using a semiautomatic stereology system (Zeiss Axiovert 200M fluorescent microscope as part of the 3iMarianas digital microscopy and a 60×SPlan apochromat oil objective (1.4 numerical aperture). Positive cells that intersected the uppermost focal (exclusion) plane and those that intersected the exclusion boundaries of the unbiased sampling frame were excluded from analysis. Cells that met analysis criteria through a 20 μm axial distance were counted according to the optical dissector principle. The granule cell layer reference volume was determined by summing the traced SGZ, granule cell areas for each section multiplied by the distance between sections sampled. The mean granule cell number per dissector volume was multiplied by the reference volume to estimate the total granule cell number. The stereologically determined number of BrdU-positive cells was related to the granule cell layer sectional volume and multiplied by the reference volume to estimate the total number of BrdU-positive cells.
Total BrdU labeled cells were quantified for 3, 6, 9, and 12 months non-Tg and 3×TgAD male mice. The serial brain sections were collected to analyze the effects of THP on BrdU incorporation by unbiased stereological analysis. Data are represented as mean±SEM (n≥4 in each group). […] PCNA, an S-phase cell cycle marker, was increased in THP compared to vehicle control in 3×TgAD mice in three month (FIG. 12B) and six month (FIG. 12C) mice as shown by immunoblot.
To decipher the THP effect in neurogenesis, cell proliferation assessment experiments were conducted. Following animal sacrifice and brain section staining, unbiased stereology was conducted in both non-Tg and 3×TgAD mice at three different ages.

[2] = test system: human neural progenitor cells (hNPC); experiment: Proliferation and phenotype of human neural progenitor cells (hNPC); assay type: cell-based
Method: To determine the impact of THP on hNPC cell proliferation, a dose response (pM-nM) experiment was performed. Results of these analyses indicate:
To determine the impact of THP on the stability of hNPC phenotype, hNPCs were double labeled with BrdU, Tuj1 and MAP2, or GFAP.
To determine whether the same mechanisms of THP-induced proliferation in rodent derived NPCs could be generalized to humans, we determined the requirement of the GABAAR by antagonizing the GABAAR with bicuculline followed by assessment of THP-induced hNPC cell proliferation.

PCNA and CDK1/cdc2 = PCNA and CDK1/cdc2 mRNA and protein in hippocampus (RT-PCR, Western blot); assay type: in vivo, mouse
Method: Protein was extracted from mouse hippocampus and separated by SDS gel as described in the literature. After transfer, PVDF membrane was plotted with monoclonal antibody for proliferating cell nuclear antigen (PCNA, 1:500, Zymed Laboratories Inc, San Francisco, Calif.) and then incubated with a horseradish peroxidase conjugated secondary antibody which is complementary to the primary antibody. Results were visualized by the ECL Plus Western Blotting Detection System (GE Healthcare, Amersham, Buckinghamshire, UK) followed by TMB development. Optical density was and analyzed by BioRad Quantity One software. The percent protein expression vs. control was normalized by loading control β-actin.
Brain samples derived from the same brains that underwent unbiased stereological analysis and GC/MC for THP detection were also analyzed by real-time RT-PCR and Western blot for expression of PCNA and CDK1 mRNA and protein.
To confirm the stereological analyses results, Western blot analyses of cell proliferation marker PCNA were carried out using samples derived from the same brains which underwent unbiased stereological analysis. PCNA, or Proliferating Cell Nuclear Antigen, is a protein that acts as a processivity factor for DNA polymerase delta subunit in eukaryotic cells and was induced in vitro by THP in cultured rat hippocampal progenitor cells.
Western blot analysis was performed to determine proliferating cell nuclear antigen (PCNA) expression levels in the hippocampus from the same animals that underwent behavior experiments.

CC(=O)[C@H]1CC[C@H]2[C@@H]3CC[C@H]4C[C@H](O)CC[C@]4(C)[C@H]3CC[C@]12C [THP, 3α-hydroxy-5α-pregnan-20-one] was tested, and the “increase in BrdU-positive cells relative to untreated group” value (SVZ from 3×TgAD mice) was 58%, the “increase in BrdU incorporation vs vehicle control group” value ([1]; 3×TgAD mice, 3 months, 10 mg/kg BW s.c., 24 hours) was 55+18% and the “cell proliferation (normal BrdU+ cells)” value ([1]; 3×TgAD mice, 6, 9, 12 months) was “no significant effect in cell proliferation”. For the same compound, the “pyknotic BrdU+ cell count after THP treatment” value ([1]; 3×TgAD mice) was 48.0±48.00, the “neurogenic deficit of 3×TgAD mice vs non-Tg (total BrdU cells)” value ([1]; 3×TgAD mice, one s.c. dose, 24 hours) was “restored proliferation to that of normal nontransgenic mice; also recorded: reversed the neurogenic deficit of the 3×TgAD mouse SGZ and restored normal levels of neurogenesis” and the “pyknotic cell population, vehicle vs THP” value ([1]; non-Tg and 3×TgAD mice, 9- and 12-months) was “no difference”. The “cell proliferation (normal BrdU+ cells)” value ([1]; non-Tg mice, 6, 9, 12 months) was “no effect on cell proliferation”, the “pyknotic BrdU+ cell count after THP treatment” value ([1]; non-Tg mice) was 576.0±185.49 and the “efficacy as neurogenic factor compared with bFGF+heparin” value [2] was “exceeded that of bFGF+heparin”. For the same compound, the “proliferative efficacy compared with positive control bFGF” value ([2]; 250 nM THP) was “as efficacious a proliferative factor as the positive control, bFGF”, the “concentration at which proliferation was first evident” value ([2]; dose response) was 1 nM and the “concentration at which proliferative efficacy diminished” value ([2]; dose response) was 1000 nM. For the same compound, the “concentration of maximal proliferation” value ([2]; dose response, sustained at 250 and 500 nM) was 100 nM, the “increase in human neural progenitor cell proliferation” value ([2]; doses within an achievable therapeutic range) was 50% and the “number of BrdU positive hNPCs vs vehicle” value ([2]; double labeling) was “significantly increased”. The “proportion of Tuj1, MAP2 or GFAP cells vs vehicle” value ([2]; double labeling) was “not changing”, the “time at which hNPC proliferation reached maximum” value ([2]; time course) was 6 h and the “time at which hNPC proliferation was evident” value ([2]; time course) was 3 h. The “PCNA and CDK1 protein expression in hippocampi” value (PCNA and CDK1/cdc2; 10 mg/kg, Western blot, 3 months) was “greater PCNA and CDK1 protein expression in the hippocampi of 3×TgAD relative to the non-Tg mice”, the “PCNA expression vs vehicle 21 day after injection” value (PCNA and CDK1/cdc2; 3×TgAD mice, 6, 9 or 12-month-old) was “no significant difference” and the “PCNA mRNA in hippocampus” value (PCNA and CDK1/cdc2; 3×TgAD mice, real-time RT-PCR, 1-20 mg/kg) was “dose-dependent increase in PCNA mRNA”. The “PCNA immunoblot vs vehicle control” value (PCNA and CDK1/cdc2; 3×TgAD mice, three and six month, 24 hours after 10 mg/kg) was “increased” and the “PCNA expression vs vehicle” value (PCNA and CDK1/cdc2; non-Tg and 3×TgAD mice, 6- and 9-months, 24 hr) was “did not significantly affect PCNA expression”.
